Results published in patent US20260355318A1, “MOLECULAR MACHINES FOR TREATMENT OF CANCER, FUNGAL INFECTIONS, OR BACTERIAL INFECTIONS” (priority 2022, published 2026).
Values after ≈ are worked out from the molar mass of the structure shown.

Columns and labels:
[1] = tested on: C. albicans; assay: MIC, visible-light-activated MMs and conventional antifungals, C. albicans; assay type: cell-based, Candida albicans (ATCC 18804); conditions: Candida albicans, read-out: MIC of antifungal agent
In short: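 C. albicans suspensions (~10^4 CFU/mL in saline, CLSI) incubated 30 min in the dark with MMs, then irradiated with stirring at 405 nm, 292 mW cm^−2 for 5 min (87.6 J cm^−2). Cells then grown in MOPS-buffered RPMI 1640 (pH 7.0) at 30 °C for 48 h; MIC is lowest concentration with no visible growth; conventional antifungals tested likewise.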

[2] = tested on: T. rubrum; assay: MIC, MMs and antifungals, T. rubrum; assay type: cell-based, Trichophyton rubrum (ATCC 10218); conditions: Trichophyton rubrum, read-out: MIC of antifungal agent
Method: Cell suspensions for susceptibility testing (MMs and conventional antifungals) were prepared per the Clinical & Laboratory Standards Institute (CLSI) guidelines (CLSI, 2017; CLSI, 2008). Before testing, yeasts (C. albicans and S. cerevisiae) were sub-cultured in Sabouraud Dextrose Agar-Emmons Modification (SDAE) plates and grown for 24 h at 30 °C. Five independent colonies from 24-h-old plates were collected and diluted to ~10^4 colony forming units (CFU) per mL in sterile saline (CLSI, 2017). Molds (A. fumigatus and the dermatophytes T. rubrum and M. gypseum) were sub-cultured on SDAE medium and incubated for 7 days at 28 °C. Conidia were recovered by covering the plates with sterile distilled water and scraping the colonies. The suspensions were filtered (8-μm pore size) and diluted in saline to ~10^4 CFU mL^−1 (Santos and Hamdan, 2005).
After a 30-min incubation in the dark, cell suspensions were transferred to small, sterilized glass beakers, which were then placed in a water bath. Each sample was irradiated with 405-nm light at 292 mW cm^−2 for 5 min, corresponding to a light dose of 87.6 J cm^−2, determined using an S415C thermal power sensor (Thorlabs, Newton, MA, USA). During irradiation, the cell suspensions were agitated with a small metal stirrer. […]

[3] = tested on: biofilms of P. aeruginosa and S. aureus; assay: Biofilm total bacterial cell number (acridine orange); assay type: cell-based, Pseudomonas aeruginosa, Staphylococcus aureus; conditions: 2×MIC, vs untreated controls
Method: (§1) This combination of methods is effective at evaluating the antibiofilm potential of chemicals (Stiefel et al., 2016). P. aeruginosa and S. aureus were grown overnight in tryptic soy broth (TSB) medium. The overnight cultures were diluted in 1:100 in fresh media and 100 μL aliquots were distributed in a 96-well plate. After 24 h of static growth at 37 ° C, planktonic cells were removed by inverting the plate onto a stack of paper towels, and the biofilm was washed three times with PBS. After washing, MM 1, MM 5, or MM 6 were added at 2×MIC to the biofilm and incubated statically in the dark for 60 min. The biofilm was then irradiated for 15, 30, or 45 min at 146 mW cm2. For the determination of the total bacterial number, acridine orange solution (2% in H2O) diluted 1:100 in Walpole's buffer (27.2 g L-1 sodium acetate trihydrate, adjusted to pH 4 with glacial acetic acid) was added to the wells.

[4] = tested on: biofilms of P. aeruginosa and S. aureus; assay: Biofilm metabolically active cells (ATP); assay type: cell-based, Pseudomonas aeruginosa, Staphylococcus aureus; conditions: 2×MIC, antibiotics 45 min, MMs 15 min + light, vs untreated
Method: as §1
For quantification of viable cells in biofilms, following the addition of 100 μL […] of TSB to each well, bacteria were detached from the biofilm by thorough mixing, after which […] of BacTiter-Glo™ reagent, prepared according to the manufacturer's instructions, was added to each well.

[5] = tested on: S. aureus; assay: MIC, S. aureus; assay type: cell-based, Staphylococcus aureus; conditions: Staphylococcus aureus, read-out: Antibiotic MIC
Method: (§2) The appropriate volume of an MM stock at 8 mM necessary to achieve a concentration ranging from 0.3125 to 40 μM was pipetted into a 2 mL microcentrifuge tube to which 1 mL of cell suspension prepared as previously described was added. Corresponding negative controls (DMSO only) were prepared in the same way. The mixture was gently mixed by pipetting and incubated in the dark at 30 or 37 ° C, depending on the strain, for 30 min with agitation (220 rpm). Afterward, MM- or DMSO-treated cells were dispensed in one well of a 24-well plate positioned in the center of the light beam (405 nm LED Light, Prizmatix, UHP—F-5-405) placed at the appropriate distance necessary to achieve the desired light intensity of 304 mW cm-2, 146 mW cm2 or 87 mW cm2, as measured with a handheld digital power meter console coupled to an S415C thermal power sensor head (Thorlabs, Newton, MA, USA). The temperature during irradiation was monitored using a thermocouple probe (Model SC-TT-K-30-36-PP; Omega Engineering, Inc., Stanford, CT, USA). Samples were agitated during irradiation. Dark controls were prepared as previously described except that no irradiation was provided.
(§3) For MIC determination, samples treated with a range of concentrations of the different MM, as described above and were irradiated one at a time for 5 min at 146 mW cm^−2 (43.8 J cm^−2), after which irradiated aliquots were collected and inoculated into 1 mL MHB in a 2 mL microcentrifuge tube. Samples were incubated overnight at 30 or 37 ° C, depending on the strain, without agitation. Corresponding non-irradiated samples and negative controls (without bacteria) were also included. The following day, cultures were inspected for growth and the MIC was identified. The experimental procedure used to determine the MIC of visible light-activated MMs is schematically depicted in FIG. 26.

[6] = tested on: S. aureus; assay: G. mellonella burn wound infection model, S. aureus; assay type: in vivo, Galleria mellonella; conditions: S. aureus-infected G. mellonella, 1×MIC
Method: (§4) Animal studies were conducted in the burn wound model Galleria mellonella recently described (Maslova et al., 2020). […] Larvae were sorted into Petri dishes lined with Whatman filter paper (Fisher Scientific, Pittsburgh, PA) and stored at 4 ° C until use. The larval bodies were sterilized with 70% ethanol. The burn was generated using a soldering iron (Weller WE1010 ESD-Safe Digital 70-Watt Soldering Station, 120V, Weller Company, Easton, PA, USA) to achieve a consistent burn area of ≈2 mm^2 in the middle section of the back of larvae. This location was chosen so the wound could be easily visualized without having to physically manipulate the larvae. Immediately post-burn, the wound was inoculated with 10 μL of 1:10 dilution of an overnight culture of A. baumannii or S. aureus. […] In order to minimize any potential temperature effects, a constant flow of 0.2 μm pore-size-filtered air was provided to the surface of the worm. Dark 1% DMSO controls were also included. The mortality of larvae post-treatment was monitored for up to 7 days. Mortality was recorded by complete melanization of the larval body and complete loss of motility. A brief overview of the protocol is schematically depicted in FIG. 44A. Work in Galleria mellonella was reviewed and approved by the Office of Sponsored Projects and Research Compliance (SPARC) of Rice University.

[7] = tested on: A. baumannii; assay: MIC, A. baumannii; assay type: cell-based, Acinetobacter baumannii; conditions: A. baumannii, broth microdilution
Method: as §2, §3

[8] = tested on: A. baumannii; assay: G. mellonella burn wound infection model, A. baumannii; assay type: in vivo, Galleria mellonella; conditions: A. baumannii-infected G. mellonella, 1×MIC
Method: as §4

Compound Cc1cc(C2CCCCC2)n(O)c(=O)c1 [Ciclopirox (CPX), Ciclopirox] has an MIC [1] of 1 µg/mL and an MIC [2] of 0.5 µg/mL.

In the case of NC[C@H]1O[C@H](O[C@H]2[C@H](O)[C@@H](O[C@H]3O[C@H](CO)[C@@H](O)[C@H](N)[C@H]3O)[C@H](N)C[C@@H]2N)[C@H](N)C[C@@H]1O [Tobramycin], the “reduction in total bacterial cell number in biofilm” value [3] is reported as “up to 43%”, the “reduction in metabolically active cells in biofilm” value [4] is reported as 27% and the MIC [5] is reported as 4 µg/mL (≈ 8.56 µM). For the same compound, the “mortality after 7 days” value [6] was 33%.

With Polymyxin B [reference compound] the “Antibiotic MIC” value [7] was 0.125 μg per mL and the “mortality after 7 days” value [8] was 69%.
